Test results published in patent US6375979B2 (Somerset Pharmaceuticals, Inc., priority 1995, dated 2002).
Values joined by “and” are separate entries in the source; they are usually repeats but may differ in a detail not shown here. Equal values may be shown once. Read-outs that look alike come from different tables or passages of the source.

What was measured:
[1] = tested on: cultured rat mesencephalic cells; assay: Medium change (glutamate receptor dependent) model of cell death: [3H]-dopamine uptake; conditions: for neuron protection by measurement of dopamine uptake (FIG. 15): glutamate receptor dependent model
Protocol: Preparations are then added to 10 ml Ecoscint (National Diagnostics) and counted in a scintillation spectrometer.
(§2) In these experiments, cells were plated and allowed to stabilize for several days.

[2] = tested on: cultured embryonic mesencephalic cells; assay: Neuronal survival: [3H]dopamine uptake by cultured mesencephalic cells; format: cell-based, rat
Excerpt: The amount of uptake by the cultured brain cells corresponds to axonal growth.

[3] = tested on: TH positive cells in cultured E-14 embryonic mesencephalic cells
MAO-A [4] = target: T1, MAO-A (Rattus norvegicus, UniProt P21396)
T1 sequence (P21396 1-526): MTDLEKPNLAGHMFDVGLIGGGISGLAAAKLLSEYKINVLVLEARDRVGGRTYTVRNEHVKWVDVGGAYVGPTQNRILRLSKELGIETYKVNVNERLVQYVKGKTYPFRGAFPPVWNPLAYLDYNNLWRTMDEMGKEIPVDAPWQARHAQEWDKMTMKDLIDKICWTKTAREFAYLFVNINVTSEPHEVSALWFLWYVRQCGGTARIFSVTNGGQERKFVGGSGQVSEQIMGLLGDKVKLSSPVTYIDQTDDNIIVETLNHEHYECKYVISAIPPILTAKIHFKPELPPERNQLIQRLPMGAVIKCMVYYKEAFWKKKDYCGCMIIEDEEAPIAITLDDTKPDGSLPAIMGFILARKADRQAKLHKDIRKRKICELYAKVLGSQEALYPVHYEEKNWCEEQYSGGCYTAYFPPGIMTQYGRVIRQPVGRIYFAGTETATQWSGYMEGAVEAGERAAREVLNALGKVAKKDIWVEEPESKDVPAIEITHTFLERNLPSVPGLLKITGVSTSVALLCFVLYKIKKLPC

[5] = tested on: cultured rat mesencephalic cells exposed to NMDA; assay: NMDA model of cell death: TH immunochemistry; conditions: 50 μM, 100 μM NMDA exposure
Protocol: Rat mesencephalic cell cultures were exposed to 100 μM NMDA and incubated as described above in connection with FIG. 16.

MAO-A [6] = target: T2, MAO-A (Cavia porcellus, UniProt H0UVA2); assay: MAO-A inhibition in guinea pig hippocampal homogenates in vitro; format: biochemical; set-up: by human platelets and/or guinea pig hippocampal homogenates; from tissue; host or cells: guinea pig hippocampus homogenate
T2 sequence (H0UVA2 1-461): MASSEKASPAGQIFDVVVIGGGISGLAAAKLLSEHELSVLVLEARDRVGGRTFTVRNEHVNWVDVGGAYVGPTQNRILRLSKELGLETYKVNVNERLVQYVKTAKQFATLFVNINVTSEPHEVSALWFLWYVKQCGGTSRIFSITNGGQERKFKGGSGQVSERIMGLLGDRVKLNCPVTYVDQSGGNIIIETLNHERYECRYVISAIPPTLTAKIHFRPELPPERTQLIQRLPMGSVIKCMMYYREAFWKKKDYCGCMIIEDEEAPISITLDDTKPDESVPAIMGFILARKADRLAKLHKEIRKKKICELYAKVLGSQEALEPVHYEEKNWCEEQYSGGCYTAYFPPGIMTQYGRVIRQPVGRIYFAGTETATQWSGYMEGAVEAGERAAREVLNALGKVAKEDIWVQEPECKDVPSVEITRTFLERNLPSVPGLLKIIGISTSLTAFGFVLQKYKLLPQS
Excerpt: Human platelet MAO is comprised exclusively of the type-B isoform of the enzyme. […] The present study also examined the two enantiomers of DMS for inhibitory activity with respect to the MAO-A and MAO-B in guinea pig hippocampal tissue. Guinea pig brain tissue is an excellent animal model for studying brain dopamine metabolism, the enzyme kinetics of the multiple forms of MAO and the inhibitory properties of novel agents that interact with these enzymes. The multiple forms of MAO in this animal species show similar kinetic properties to those found in human brain tissue. Finally, the test agents were administered to guinea pigs and the extent to which they might act as inhibitors of brain MAO in vivo was assessed.
In vitro: The test system utilized the in vitro conversion of specific substrates of MAO-A (^14C-serotonin) and MAO-B (^14C-phenylethylamine) by human platelets and/or guinea pig hippocampal homogenates. […] A percent inhibition was calculated from these values.

[7] = tested on: cultured rat mesencephalic cells; assay: Medium change (glutamate receptor dependent) model of cell death: TH positive cells
Protocol: as §2

interleukin-2 production = assay: Concanavalin A-induced interleukin-2 production by spleen cells of treated old rats; format: in vivo, rat; conditions: ip daily 60 days
Protocol: The present experiments utilized a rat model to examine the ability of R(−)DMS and S(+)DMS to restore immunological function. Rats were divided into the following experimental groups:
(§1) Rats were administered saline or test agent ip, daily for 60 days. They were then maintained for an additional “wash out” period of 10 days during which time no treatment was given. At the end of this time, animals were sacrificed and their spleens were removed. The spleen cells were then assayed for a variety of factors which are indicative of immune system function. Specifically, standard tests were employed to determine the following:
2) in vitro concanavalin A-induced production of interleukin-2;

[8] = tested on: cultured rat mesencephalic cells exposed to NMDA; assay: NMDA model of cell death: [3H]-dopamine uptake; conditions: 50 μM, 100 μM NMDA exposure
[9] = target: T3, dopamine re-uptake system (Rattus norvegicus, UniProt P23977); assay: Inhibition of dopamine re-uptake in rat neostriatal synaptosome preparation; format: biochemical
T3 construct: (synaptosome preparation) was obtained form fresh rat neostriatal brain tissue; from tissue; host or cells: rat neostriatum, synaptosome preparation
T3 sequence (P23977 whole entry): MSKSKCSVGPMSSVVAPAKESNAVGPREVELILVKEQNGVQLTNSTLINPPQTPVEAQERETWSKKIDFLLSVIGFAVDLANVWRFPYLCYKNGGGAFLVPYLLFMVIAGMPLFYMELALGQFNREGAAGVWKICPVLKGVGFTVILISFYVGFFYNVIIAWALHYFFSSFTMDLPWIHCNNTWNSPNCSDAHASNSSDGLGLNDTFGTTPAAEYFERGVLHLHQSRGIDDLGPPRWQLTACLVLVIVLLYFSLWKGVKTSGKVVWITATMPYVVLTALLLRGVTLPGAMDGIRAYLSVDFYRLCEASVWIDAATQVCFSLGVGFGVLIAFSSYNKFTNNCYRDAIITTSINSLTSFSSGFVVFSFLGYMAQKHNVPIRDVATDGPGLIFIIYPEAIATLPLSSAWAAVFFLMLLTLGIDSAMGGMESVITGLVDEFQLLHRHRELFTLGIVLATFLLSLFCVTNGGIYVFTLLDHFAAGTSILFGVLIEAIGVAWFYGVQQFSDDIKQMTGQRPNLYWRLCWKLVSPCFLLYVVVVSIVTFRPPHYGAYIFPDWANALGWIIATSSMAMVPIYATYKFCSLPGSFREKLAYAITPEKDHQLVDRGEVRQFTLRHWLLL
Protocol: An in vitro nerve terminal preparation (synaptosome preparation) was prepared using fresh rat neostriatal tissue.
FIG. 19: Determination of IC50 Values for Inhibition of Dopamine Re-Uptake.
An in vitro nerve-terminal preparation (synaptosome preparation) was obtained form fresh rat neostriatal brain tissue. Transport by dopamine nerve-terminals was estimated by measuring the uptake of tritiated dopamine.

γ-interferon production = γ-interferon production by concanavalin A-stimulated spleen cells of treated old rats; format: in vivo, rat; conditions: old rats, ip daily 60 days; 1.0 mg/kg (for DMS enantiomers)
Protocol: Rats were divided into the following experimental groups:
as §1
1) in vitro production of γ-interferon by concanavalin A-stimulated spleen cells;

[10] = 50 μM, medium change model, listed as Deprenyl
[11] = 1.0 mg/kg (for DMS enantiomers)

C#CCN(C)[C@H](C)Cc1ccccc1 [Selegiline, R-(−)-N-methyl-N-(prop-2-ynyl)-2-aminophenylpropane, reference compound]
neuron protection by measurement of dopamine uptake (FIG. 15) ([1]; 50 μM): neuron protection | Dopamine uptake, % control, Mean ([1]; 50 μM, medium change model): 170.1% | Dopamine uptake, counts/min, Mean ([1]; 50 μM, medium change model): 35714 counts/min | Dopamine uptake, % control, individual cultures [1, 10]: 181.2% and 162.6% and 175.3% and 161.3% | Dopamine uptake, counts/min, individual cultures [1, 10]: 38053 counts/min and 34130 counts/min and 36810 counts/min and 33863 counts/min | 3H-Dopamine Uptake, % Cont ([2]; 0.5 μM): 120.6% | 3H-Dopamine Uptake, Mean ([2]; 0.5 μM): 14452 ± 212 | 3H-Dopamine Uptake, % Cont ([2]; 5 μM): 137.5% | 3H-Dopamine Uptake, Mean ([2]; 5 μM): 16468 ± 576 | 3H-Dopamine Uptake, % Cont ([2]; 50 μM): 275.5% | 3H-Dopamine Uptake, Mean ([2]; 50 μM): 33018 ± 1317 | Survival of TH positive cells, % cont. ([3]; 0.5 μM): 185.81% | Survival of TH positive cells, Mean cells/cm^2 ([3]; 0.5 μM): 201.70 ± 25.01 cells/cm^2 | Survival of TH positive cells, % cont. ([3]; 5 μM): 218.33% | Survival of TH positive cells, Mean cells/cm^2 ([3]; 5 μM): 237.00 ± 12.59 cells/cm^2 | Survival of TH positive cells, % cont. ([3]; 50 μM): 269.25% | Survival of TH positive cells, Mean cells/cm^2 ([3]; 50 μM): 292.28 ± 17.41 cells/cm^2 | inhibition (MAO-A [4]; 0.3 µM): 9.75% | inhibition (MAO-A [4]; 1 μM): 32.5% | inhibition (MAO-A [4]; 3 µM): 65.5% | inhibition (MAO-A [4]; 10 μM): 97.8% | TH Immunochemistry, % control, Mean [5]: 234.3% | TH Immunochemistry, cells/cm^2, Mean [5]: 220.63 cells/cm^2 | TH Immunochemistry, % control, individual cultures ([5]; listed as Deprenyl): 244.2% and 305.3% and 199.1% and 188.5% | TH Immunochemistry, cells/cm^2, individual cultures ([5]; listed as Deprenyl): 230.0 cells/cm^2 and 287.5 cells/cm^2 and 187.5 cells/cm^2 and 177.5 cells/cm^2 | IC50 (MAO-A [6]): 2.5 µM | inhibition at 0.3 µM (MAO-A [6]; 300 nM, guinea pig hippocampus, read-out: MAO-A % Inhibition x = SEM): 11.9 ± 2.4% | inhibition at 1 µM (MAO-A [6]; 1 μM, guinea pig hippocampus, read-out: MAO-A % Inhibition x = SEM): 22.1 ± 1.2% | inhibition at 3 µM (MAO-A [6]; 3 μM, guinea pig hippocampus, read-out: MAO-A % Inhibition x = SEM): 53.5 ± 2.7% | reduction in potency compared to selegiline (value in parentheses) (MAO-A [6]; MAO-A IC50, guinea pig hippocampal cortex): 1 | TH Immunochemistry, % control, Mean ([7]; 50 μM, medium change model): 130.6% | TH Immunochemistry, cells/cm^2, Mean ([7]; 50 μM, medium change model): 344.17 cells/cm^2 | TH Immunochemistry, % control, individual cultures [7, 10]: 146.0% and 124.2% and 121.4% | TH Immunochemistry, cells/cm^2, individual cultures [7, 10]: 385.0 cells/cm^2 and 327.5 cells/cm^2 and 320.0 cells/cm^2 | survival of dopaminergic neurons (FIGS. 11 and 12) ([7]; 0.5, 5.0 or 50 μM, 4 days of daily medium changes, TH staining and dopamine uptake): promotes the survival of dopaminergic neurons | IL-2 % control (interleukin-2 production; [11]): 376% | IL-2 U/ml mean (interleukin-2 production; [11]): 73.78 U/ml | IL-2 U/ml mean (interleukin-2 production; […] (for R(−)DMS by group order)): 109.6 U/ml | Dopamine uptake, % control, Mean [8]: 257.4% | Dopamine uptake, counts/min, Mean [8]: 17393.8 counts/min | Dopamine uptake, % control, individual cultures ([8]; listed as Deprenyl): 228.1% and 273.5% and 251.0% and 259.8% and 274.9% | Dopamine uptake, counts/min, individual cultures ([8]; listed as Deprenyl): 15410 counts/min and 18479 counts/min and 16958 counts/min and 17550 counts/min and 18572 counts/min | 3H-Dopamine uptake, % Reduction x ± SEM ([9]; 1 μM): 13.9 ± 4.7% | 3H-Dopamine uptake, % Reduction x ± SEM ([9]; 10 μM): 16.3 ± 3.8% | 3H-Dopamine uptake, % Reduction x ± SEM ([9]; 100 μM): 7.0 ± 3.6% | 3H-Dopamine uptake, % Reduction x ± SEM ([9]; 100 μM (last row of each agent)): 59.8 ± 1.0% | IFN-γ % control (γ-interferon production): 550% | IFN-γ U/ml mean (γ-interferon production): 1934 U/ml

NCCc1ccc(O)c(O)c1 [Dopamine, dopamine, reference compound]
3H-Dopamine uptake, % Reduction x ± SEM ([9]; 1 μM): 52.0 ± 4.9% | 3H-Dopamine uptake, % Reduction x ± SEM ([9]; 10 μM): 80.9 ± 0.4%

C[C@]12N[C@H](Cc3ccccc31)c1ccccc12 [MK-801, reference compound]
neuron protection by measurement of dopamine uptake (FIG. 15) ([1]; 10 μM): protection was also obtained

C#CCN(C)Cc1ccccc1 [Pargyline, pargyline, reference compound]
neuron protection by measurement of dopamine uptake (FIG. 15) ([1]; at the concentrations used (0.5, 5 and 50 μM)): did not appear to offer any protection

C#CCN(C)CCCOc1ccc(Cl)cc1Cl [clorgyline, reference compound]
neuron protection by measurement of dopamine uptake (FIG. 15) ([1]; 50 μM): protected
